Data set [1] has as its system complex regional pain syndrome (CRPS), fracture hindpaw. Description: rat tibia fracture model of complex regional pain syndrome (CRPS): von Frey, weight bearing, edema, warmth. In kind it is in vivo. Particulars: oral 18 mg/m^2/day (3 mg/kg/day) for 28 days. The protocol: The effect of orally administered zoledronic acid was examined in the rat tibia fracture model of complex regional pain syndrome (CRPS). CRPS was induced in the rats by fracturing the right distal tibias of the animals and casting the fractured hindpaws for 4 weeks, as described in Guo T Z et al. (Pain. 2004; 108:95-107).
Animals were orally administered either vehicle (control) or zoledronic acid, in a dosage of 18 mg/m^2/day (3 mg/kg/day) for 28 days, starting on the day of fracture and casting. Drug was dissolved in distilled water and administered by gavage. Animals were fasted for 4 hours before and 2 hours after dosing. At the end of the 28-day period, casts were removed, and on the following day, the rats were tested for hindpaw pain, edema, and warmth.
Pain was assessed by measuring hyperalgesia, and weight bearing. […]
An incapacitance device (IITC Inc. Life Science, Woodland, Calif., USA) was used to measure hindpaw weight bearing, a postural effect of pain. […] Eight readings (excluding the highest and lowest ones) were averaged to calculate the bilateral hindpaw weight-bearing values. Weight bearing data were analyzed as the ratio between right (fracture) and left hindpaw weight bearing values ((2R/(R+L))×100%). […]
The temperature of the hindpaw was measured using a fine wire thermocouple (Omega, Stanford, Conn., USA) applied to the paw skin. […]

The test system of data set [2] is inflammatory pain (mechanical hyperalgesia), CFA-injected hind paw. It counts as in vivo, Sprague-Dawley rats. As for the experimental part: The effect of orally administered zoledronic acid on inflammatory pain was examined using the rat complete Freund's adjuvant (CFA) model. Inflammatory pain was induced by injection of 100% CFA in a 75 μL volume into the left hind paws of Sprague-Dawley rats on day 0, followed by assessments on days 1-3. Animals were orally administered vehicle (control), zoledronic acid 18 mg/m^2 (or 3 mg/kg), zoledronic acid 120 mg/m^2 (or 20 mg/kg), or zoledronic acid 900 mg/m^2 (or 150 mg/kg) daily on days 1-3. Drug was dissolved in distilled water and prepared fresh daily. Animals were fasted prior to dosing. Under current FDA guidelines for extrapolating starting dosages from animals to humans, dosages expressed in mg/m^2 are considered equivalent between mammalian species. Thus, for example, 18 mg/m^2 in a rat is considered equivalent to 18 mg/m^2 in a human being, while 3 mg/kg in a rat may not be equivalent to 3 mg/kg in a human being.
Values for inflammatory pain (mechanical hyperalgesia) in the vehicle and drug-treated animals were obtained on day 0 prior to CFA injection, and at baseline and post-treatment on days 1-3. Pain was assessed using a digital Randall-Selitto device (dRS; IITC Life Sciences, Woodland Hills, Calif.). Animals were placed in a restraint sling that suspended the animal, leaving the hind limbs available for testing. Paw compression threshold was measured by applying increasing pressure to the plantar surface of the hind paw with a dome-shaped tip placed between the 3rd and 4th metatarsus. Pressure was applied gradually over approximately 10 seconds. Measurements were taken from the first observed nocifensive behavior of vocalization, struggle or withdrawal. A cut-off value of 300 g was used to prevent injury to the animal.
Reversal of inflammatory pain was calculated according to the formula:
% reversal=(Post-treatment−Post-CFA baseline)/(Pre-CFA baseline−Post-CFA baseline)×100.
The experiment was carried out using 9-10 animals per group.

Molecules are shown by their SMILES. Where two headings read alike, the source gives them in different places.

In the case of `O=P(O)(O)C(O)(Cn1ccnc1)P(=O)(O)O` [zoledronic acid], the “reversal of fracture induced pain (von Frey pain threshold) as compared to vehicle” value in data set [1] is 77%. Further, the “paw compression thresholds compared to vehicle” value in data set [2] (oral 18 mg/m^2, entire measurement period after 30 minutes from start of treatment) is given as “higher than for vehicle”; in data set [2] (oral 120 mg/m^2 (20 mg/kg) daily days 1-3, all time points), “approximately equal or inferior to vehicle”; in data set [2] (oral 900 mg/m^2, day three) it was “greater than for vehicle”; in data set [2] (oral 900 mg/m^2, first two days of dosing), “lower than vehicle”. The toxicity result in data set [2] (oral 900 mg/m^2 (150 mg/kg) daily days 1-3, all animals euthanized two days after cessation of dosing) is “significant toxicity”.

These data come from patent publication US20130303486A1, “Compositions Comprising Zoledronic Acid or Related Compounds for Relieving Pain Associated with Arthritis” (priority 2012, published 2013).
